In patent US9938273B2 (Plexxikon Inc., priority 2015, dated 2018):
pIC50: −log10 of the molar value.

How the values were obtained:
c-KIT = biological target: T1, c-KIT (Homo sapiens, UniProt P10721); assay: AlphaScreen kinase assay with recombinant enzyme, c-KIT; assay type: biochemical; conditions: 100ATP, 8pt, GMean
T1 construct: purchased Millipore 14-559K
Description: (§1) In order to determine the effect of compounds on FLT3 catalytic activity, kinase assays using recombinant enzymes and AlphaScreen® technology have been established. The catalytic activity of c-kit activity was also measured to determine selectivity of the compounds. When the kinases are catalytically active, they phosphorylate a biotinylated peptide substrate on tyrosine residues. Using AlphaScreen® technology, the ability of the compounds to affect the catalytic activity of the kinases can be measured quantitatively. The peptide substrate is immobilized by the AlphaScreen® Streptavidin Donor beads and, upon phosphorylation by a tyrosine kinase, can bind to AlphaScreen® Anti-Phosphotyrosine (PY20) Acceptor beads. Upon excitation of these beads with laser light at 680 nm, singlet oxygen is produced. This singlet oxygen is rapidly quenched, unless the AlphaScreen® Anti-Phosphotyrosine (PY20) Acceptor beads are in close proximity, in which case a proximity signal can be measured at 580 nm. In the presence of catalytic activity, there is a very strong proximity signal. Selective kinase inhibitors affect a decrease in this proximity signal through a decrease in tyrosine phosphorylation of the peptide substrate.
(§2) The assay was performed as summarized below.
(§3) Poly (Glu4-Tyr) Peptide, biotin conjugate [Biotin-GG(EEEEY)10EE] (SEQ ID NO: 4)
(§4) Final concentration=30 nM
(§5) Final concentration for IC50 determination=10 μM (FLT3-D835Y or FLT3-ITD) or 100 μM (c-KIT)
(§6) AlphaScreen® Phosphotyrosine (PY20) Assay Kit
(§7) Final concentration=10 μg/mL
(§8) Dilute compounds in DMSO to 20× final concentration.
(§9) Add 1 μl of compound to each well of 384 well reaction plate (Perkin Elmer #6005359).
(§10) Mix enzyme and Poly (Glu4-Tyr) Peptide substrate at 1.33× final concentration in assay buffer.
(§11) Mix ATP at 5× final concentration in assay buffer.
(§12) Add 15 μL enzyme/substrate mixture to the reaction plate.
(§13) Add 4 μL of ATP to the reaction plate.
(§14) Mix Streptavidin Donor beads at 6× final concentration in Stop/Detection buffer.
(§15) Add 5 μL Streptavidin Donor beads to the reaction plate. Centrifuge 1 minute, shake to mix, and incubate at room temperature for 20 minutes.
(§16) Mix Anti-Phosphotyrosine (PY20) Acceptor beads at 6× final concentration in Stop/Detection buffer.
(§17) Add 5 μL Anti-Phosphotyrosine (PY20) beads to the reaction plate.
(§18) Centrifuge 1 minute, shake to mix, and incubate at room temperature for 60 minutes.
(§19) Read plate on Wallac EnVision™ 2103 Multilabel Reader.

FLT3-ITD = biological target: T2, FLT3-ITD (Homo sapiens, UniProt P36888); assay: AlphaScreen kinase assay with recombinant enzyme, FLT3-ITD; assay type: biochemical; conditions: 8pt; read-out: FLT3_ITD 8pt: IC50
T2 sequence (P36888 1-993): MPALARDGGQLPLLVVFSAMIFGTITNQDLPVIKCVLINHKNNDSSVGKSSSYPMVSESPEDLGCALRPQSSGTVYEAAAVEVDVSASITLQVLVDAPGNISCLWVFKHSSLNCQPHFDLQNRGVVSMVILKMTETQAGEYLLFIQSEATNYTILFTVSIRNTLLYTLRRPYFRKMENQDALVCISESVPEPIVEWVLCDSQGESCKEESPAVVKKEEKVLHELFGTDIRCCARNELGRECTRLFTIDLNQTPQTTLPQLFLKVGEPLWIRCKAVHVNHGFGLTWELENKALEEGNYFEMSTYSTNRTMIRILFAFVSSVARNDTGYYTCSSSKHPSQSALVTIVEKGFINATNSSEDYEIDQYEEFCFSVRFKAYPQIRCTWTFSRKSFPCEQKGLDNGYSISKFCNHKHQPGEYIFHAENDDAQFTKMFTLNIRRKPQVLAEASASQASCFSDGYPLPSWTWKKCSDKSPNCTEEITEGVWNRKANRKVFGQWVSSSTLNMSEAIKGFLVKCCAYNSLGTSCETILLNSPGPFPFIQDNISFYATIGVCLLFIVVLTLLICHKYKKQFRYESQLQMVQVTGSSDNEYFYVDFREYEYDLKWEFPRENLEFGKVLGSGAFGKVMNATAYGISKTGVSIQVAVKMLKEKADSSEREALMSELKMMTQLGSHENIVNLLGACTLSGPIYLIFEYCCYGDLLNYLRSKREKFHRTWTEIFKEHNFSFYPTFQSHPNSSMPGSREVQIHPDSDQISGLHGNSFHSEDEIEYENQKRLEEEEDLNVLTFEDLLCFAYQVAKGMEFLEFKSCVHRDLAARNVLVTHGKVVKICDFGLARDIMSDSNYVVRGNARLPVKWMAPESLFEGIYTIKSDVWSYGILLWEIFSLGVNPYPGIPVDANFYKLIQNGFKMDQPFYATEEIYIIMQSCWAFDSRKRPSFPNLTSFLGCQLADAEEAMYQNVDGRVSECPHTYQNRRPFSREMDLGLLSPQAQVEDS
Description: as §1, §2, §3, §4, §5, §6, §7, §8, §9, §10, §11, §12, §13, §14, §15, §16, §17, §18, §19

FLT3-D835Y = biological target: T3, FLT3-D835Y (Homo sapiens, UniProt P36888, D835Y); assay: AlphaScreen kinase assay with recombinant enzyme, FLT3-D835Y; assay type: biochemical; conditions: 8pt, GMean
T3 construct: purchased Invitrogen PV3967
T3 sequence (P36888 27-993 D835Y): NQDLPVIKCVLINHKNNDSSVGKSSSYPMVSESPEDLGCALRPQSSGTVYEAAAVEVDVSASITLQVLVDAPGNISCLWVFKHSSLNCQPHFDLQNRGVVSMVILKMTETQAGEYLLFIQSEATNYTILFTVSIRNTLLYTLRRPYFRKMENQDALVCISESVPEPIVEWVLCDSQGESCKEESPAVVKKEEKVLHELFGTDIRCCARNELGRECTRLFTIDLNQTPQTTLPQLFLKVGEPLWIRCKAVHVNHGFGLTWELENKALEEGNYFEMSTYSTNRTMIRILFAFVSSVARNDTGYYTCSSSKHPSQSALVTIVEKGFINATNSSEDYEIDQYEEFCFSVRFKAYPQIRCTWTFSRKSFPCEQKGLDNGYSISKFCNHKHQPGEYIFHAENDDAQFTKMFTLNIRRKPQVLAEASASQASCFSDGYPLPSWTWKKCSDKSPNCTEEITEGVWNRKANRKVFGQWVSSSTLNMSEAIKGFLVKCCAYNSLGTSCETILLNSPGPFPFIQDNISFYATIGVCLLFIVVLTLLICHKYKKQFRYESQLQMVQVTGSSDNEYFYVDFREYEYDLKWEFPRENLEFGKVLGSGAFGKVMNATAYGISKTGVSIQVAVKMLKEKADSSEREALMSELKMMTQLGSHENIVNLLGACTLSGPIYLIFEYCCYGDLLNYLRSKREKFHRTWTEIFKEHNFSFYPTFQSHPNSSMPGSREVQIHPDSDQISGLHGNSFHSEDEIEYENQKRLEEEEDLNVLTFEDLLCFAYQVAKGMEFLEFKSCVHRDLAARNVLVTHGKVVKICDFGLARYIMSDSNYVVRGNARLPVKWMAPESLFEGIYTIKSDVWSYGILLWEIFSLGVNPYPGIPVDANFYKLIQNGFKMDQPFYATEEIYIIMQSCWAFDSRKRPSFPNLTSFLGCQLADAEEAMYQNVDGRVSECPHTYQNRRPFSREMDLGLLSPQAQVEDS
Description: as §1, §2, §3, §4, §5, §6, §7, §8, §9, §10, §11, §12, §13, §14, §15, §16, §17, §18, §19

[1] = test system: MOLM-14 D835Y cells, FLT3 ITD and FLT3 D835Y; assay: Cell proliferation assay (CellTiter-Glo), MOLM-14 D835Y; assay type: cell-based; conditions: Homo sapiens, 72 h, 3d-Growth, GMean
Excerpt: The FLT3 inhibitors may be assessed using the MOLM-14, Acute Myeloid Leukemia cell line that endogenously expresses FLT3 ITD or derivatives of the human FLT3 AML cell line which acquired the D835Y (activation loop) of F691L (gatekeeper) mutation after selection in escalating doses of the FLT3 Inhibitor AC220. FLT3 inhibitors may also be assessed using cells that are engineered to express mutant FLT3. For engineered cells, murine Ba/F3 cells were transfected with full-length FLT3 ITD/D835Y mutations. The parental BA/F3 cells are dependent upon Interleukin-3 (IL-3) for survival, and introduction of the FLT3 constructs rendered these cells dependent upon FLT3 kinase activity when cultured in the absences of IL-3. Engineered BA/F3 cell growth assays can be performed in either the […] of IL-3, to assess the compound inhibition of FLT3 or to detect the presence of off-target activity, respectively. Inhibitors of FLT3 kinase activity reduce or eliminate the FLT3 oncogenic signaling, resulting in reduced cell proliferation. This inhibition is measured as a function of compound concentration to asses IC50 values.
Cell lines used in proliferation assays are as follows in Table 3:
Cells were seeded at 1×10^4 cells per well of a 96 well cell culture plate in 50 μl of cell culture medium. Compounds were dissolved in DMSO, typically at a concentration of 0.5 mM and were serially diluted 1:3 for a total of eight points and added to the cells to final concentrations of […], 0.0041, 0.0014 and 0.00046 μM in 100 μl cell culture medium (final concentration 0.2% DMSO). […] The cells were incubated at 37° C., 5% CO2 for three days. CellTiter-Glo Buffer (Promega Cell Viability Assay catalog #G7573) and substrate were equilibrated to room temperature, and enzyme/substrate Recombinant Firefly Luciferase/Beetle Luciferin was reconstituted. The cell plates were equilibrated to room temperature for 30 minutes, then lysed by addition of an equivalent volume of the Celltiter-Glo Reagent. The plate was mixed for 10 minutes on a plate shaker to lyse the cells. The plates were read on a Tecan M1000 using Luminescence protocol modified to read 0.1 s per well. The luminescence reading assesses the ATP content, which correlates directly with cell number such that the reading as a function of compound concentration was used to determine the IC50 value.

T1 sequence (P10721 26-976): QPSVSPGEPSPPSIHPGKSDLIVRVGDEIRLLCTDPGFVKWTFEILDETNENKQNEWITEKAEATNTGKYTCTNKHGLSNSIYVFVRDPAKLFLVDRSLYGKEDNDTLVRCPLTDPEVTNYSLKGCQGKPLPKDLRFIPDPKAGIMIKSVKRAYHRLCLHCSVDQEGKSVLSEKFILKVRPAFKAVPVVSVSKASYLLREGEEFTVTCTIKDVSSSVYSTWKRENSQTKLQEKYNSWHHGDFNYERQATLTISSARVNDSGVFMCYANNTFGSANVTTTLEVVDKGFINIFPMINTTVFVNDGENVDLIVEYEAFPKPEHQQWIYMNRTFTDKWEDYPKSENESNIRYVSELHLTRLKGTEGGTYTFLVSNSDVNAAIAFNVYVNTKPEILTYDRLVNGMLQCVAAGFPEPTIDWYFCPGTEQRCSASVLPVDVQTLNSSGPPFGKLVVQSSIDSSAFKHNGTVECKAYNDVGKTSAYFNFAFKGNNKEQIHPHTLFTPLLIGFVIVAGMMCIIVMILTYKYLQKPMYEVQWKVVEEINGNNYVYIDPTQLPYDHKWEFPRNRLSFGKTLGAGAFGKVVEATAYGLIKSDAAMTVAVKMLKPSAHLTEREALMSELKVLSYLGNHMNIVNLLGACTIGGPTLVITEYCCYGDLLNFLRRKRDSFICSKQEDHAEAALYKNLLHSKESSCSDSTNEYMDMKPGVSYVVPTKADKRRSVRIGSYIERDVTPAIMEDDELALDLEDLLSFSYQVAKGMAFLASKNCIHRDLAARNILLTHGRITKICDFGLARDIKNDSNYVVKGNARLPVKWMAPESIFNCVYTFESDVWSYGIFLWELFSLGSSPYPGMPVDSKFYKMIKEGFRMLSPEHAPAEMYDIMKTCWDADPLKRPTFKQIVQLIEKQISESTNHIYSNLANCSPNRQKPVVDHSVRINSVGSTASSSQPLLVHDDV

| pIC50 (c-KIT) | pIC50 (FLT3-ITD) | pIC50 (FLT3-D835Y) | pIC50 [1] | Structure (SMILES) |
| --- | --- | --- | --- | --- |
| 5.00 to 10.00 | 5.00 to 10.00 | 5.00 to 10.00 |  | CN[C@H]1CCN(C(=O)c2cccc(-c3cnc4[nH]c(-c5ccccc5)cc4c3)n2)C1 [Compound P-0051, [(3S)-3-(methylamino)pyrrolidin-1-yl]-[6-(2-phenyl-1H-pyrrolo[2,3-b]pyridin-5-yl)-2-pyridyl]methanone] |
| 4.30 to 5.00 |  | 5.00 to 10.00 |  | Cn1cc(NC(=O)c2cccc(-c3cnc4[nH]c(-c5ccccc5)cc4c3)n2)cn1 [Compound P-0065, N-(1-methylpyrazol-4-yl)-6-(2-phenyl-1H-pyrrolo[2,3-b]pyridin-5-yl)pyridine-2-carboxamide] |
| 4.00 to 4.30 | 5.00 to 10.00 | 5.00 to 10.00 |  | Cn1ccc(NC(=O)c2cccc(-c3cnc4[nH]c(-c5ccccc5)cc4c3)n2)n1 [Compound P-0066, N-(1-methylpyrazol-3-yl)-6-(2-phenyl-1H-pyrrolo[2,3-b]pyridin-5-yl)pyridine-2-carboxamide] |
|  |  | 5.00 to 10.00 | 5.00 to 10.00 | COC(=O)C1(NC(=O)c2cccc(-c3cnc4[nH]c(-c5ccccc5)cc4c3)n2)CC1 [Compound P-0129, methyl 1-[[6-(2-phenyl-1H-pyrrolo[2,3-b]pyridin-5-yl)pyridine-2-carbonyl]amino]cyclopropanecarboxylate] |

Second part, the compound before the results:

| Structure (SMILES) | pIC50 (c-KIT) | pIC50 (FLT3-ITD) | pIC50 (FLT3-D835Y) | pIC50 [1] |
| --- | --- | --- | --- | --- |
| NC1CCC(NC(=O)c2n[nH]c3ccc(-c4cnc5[nH]c(-c6ccccc6)cc5c4)cc23)CC1 (centres unmarked) [Compound P-0019, N-(4-aminocyclohexyl)-5-(2-phenyl-1H-pyrrolo[2,3-b]pyridin-5-yl)-1H-indazole-3-carboxamide] | 5.00 to 10.00 | 5.00 to 10.00 | 5.00 to 10.00 |  |
| O=C(O)C1CCN(C(=O)c2cccc(-c3cnc4[nH]c(-c5ccccc5)cc4c3)n2)CC1 [Compound P-0024, 1-[6-(2-phenyl-1H-pyrrolo[2,3-b]pyridin-5-yl)pyridine-2-carbonyl]piperidine-4-carboxylic acid] | 4.30 to 5.00 | 5.00 to 10.00 | 5.00 to 10.00 |  |
| O=C(c1ccc(-c2cnc3[nH]c(-c4ccccc4)cc3c2)s1)N1CCC(n2ccnc2)C1 (centres unmarked) [Compound P-0110, (3-imidazol-1-ylpyrrolidin-1-yl)-[5-(2-phenyl-1H-pyrrolo[2,3-b]pyridin-5-yl)-2-thienyl]methanone] | 4.30 to 5.00 |  |  |  |
| CC(C)(C#N)NC(=O)c1cccc(-c2cnc3[nH]c(-c4ccnc(F)c4)cc3c2)n1 [Compound P-0209, N-(1-cyano-1-methyl-ethyl)-6-[2-(2-fluoro-4-pyridyl)-1H-pyrrolo[2,3-b]pyridin-5-yl]pyridine-2-carboxamide] | 4.00 to 4.30 | 5.00 to 10.00 | 5.00 to 10.00 |  |
| Cc1cc(-c2cc3cc(-c4cccc(C(=O)NC(C)(C)C#N)n4)cnc3[nH]2)ccn1 [Compound P-0210, N-(1-cyano-1-methyl-ethyl)-6-[2-(2-methyl-4-pyridyl)-1H-pyrrolo[2,3-b]pyridin-5-yl]pyridine-2-carboxamide] | 4.00 to 4.30 | 5.00 to 10.00 | 5.00 to 10.00 |  |
